The results in this text go back to patent publication US20110230476A1, “PI3 KINASE INHIBITORS AND USES THEREOF” (AVILA THERAPEUTICS, INC., priority 2009, published 2011).

For assay [1], the target named is T1, PI3Kβ (p110β/p85α) (Homo sapiens, UniProt P42338).
T1 construct: purchased BPS Bioscience (San Diego, Calif.) or Millipore (Billerica, Mass.)
The assay can be described thus: HTRF assay, potency against active PI3Kβ. The format is biochemical. Conditions: [ATP]=50 μM, [di-C8-PIP2]=10 μM, 30 min pre-incubation, read-out: PI3Kβ Inhibition. An outline of the steps:
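Active p110/p85α lipid kinase reactions were started with ATP and run 30-60 minutes at 25 °C, then stopped and developed with HTRF detection mix. HTRF ratio converted to % inhibition against ±enzyme controls; IC50 from log[inhibitor] vs response, variable slope.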
For orientation: Time-resolved FRET reads energy transfer from a long-lived donor to a nearby acceptor.

Assay [2] has as its system Phospho-Akt(Ser473). The assay can be described thus: Dose response in SKOV3 cells as determined by Western blot. In kind it is cell-based. The conditions noted are these: Homo sapiens, SK-OV-3, 1 hr, Phospho-Akt normalized to total Akt, read-out: Immunoblot. In outline: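 SKOV3 cells in DMEM/10% FBS were treated with compound in 0.1% DMSO for 1 hr, then lysed. 50 ug protein was immunoblotted for Phospho-Akt(Ser473) and total Akt with fluorescent read-out. Phospho-Akt was normalized to total Akt and expressed as percent of untreated signal.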

Assay [3] has as its system Phospho-Akt(Ser473). In words: Dose response in SKOV3 cells as determined by in-cell Western. In kind it is cell-based. Conditions: Homo sapiens, SK-OV-3. In outline:
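SKOV3 cells treated with compound for 1 hr, then formaldehyde-fixed, permeabilised and stained overnight for phospho-Akt(Ser473) with anti-tubulin as a reference. Infrared secondary antibodies read at 680 and 800 nm channels by in-cell Western imaging.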

The mark [4] stands for this setting: SKOV3 cells, 1 hr, read-out: pAKT Inhibition in cell Western.

SMILES strings stand for the structures. Some results are limits rather than exact numbers.

T1 sequence (P42338 whole entry): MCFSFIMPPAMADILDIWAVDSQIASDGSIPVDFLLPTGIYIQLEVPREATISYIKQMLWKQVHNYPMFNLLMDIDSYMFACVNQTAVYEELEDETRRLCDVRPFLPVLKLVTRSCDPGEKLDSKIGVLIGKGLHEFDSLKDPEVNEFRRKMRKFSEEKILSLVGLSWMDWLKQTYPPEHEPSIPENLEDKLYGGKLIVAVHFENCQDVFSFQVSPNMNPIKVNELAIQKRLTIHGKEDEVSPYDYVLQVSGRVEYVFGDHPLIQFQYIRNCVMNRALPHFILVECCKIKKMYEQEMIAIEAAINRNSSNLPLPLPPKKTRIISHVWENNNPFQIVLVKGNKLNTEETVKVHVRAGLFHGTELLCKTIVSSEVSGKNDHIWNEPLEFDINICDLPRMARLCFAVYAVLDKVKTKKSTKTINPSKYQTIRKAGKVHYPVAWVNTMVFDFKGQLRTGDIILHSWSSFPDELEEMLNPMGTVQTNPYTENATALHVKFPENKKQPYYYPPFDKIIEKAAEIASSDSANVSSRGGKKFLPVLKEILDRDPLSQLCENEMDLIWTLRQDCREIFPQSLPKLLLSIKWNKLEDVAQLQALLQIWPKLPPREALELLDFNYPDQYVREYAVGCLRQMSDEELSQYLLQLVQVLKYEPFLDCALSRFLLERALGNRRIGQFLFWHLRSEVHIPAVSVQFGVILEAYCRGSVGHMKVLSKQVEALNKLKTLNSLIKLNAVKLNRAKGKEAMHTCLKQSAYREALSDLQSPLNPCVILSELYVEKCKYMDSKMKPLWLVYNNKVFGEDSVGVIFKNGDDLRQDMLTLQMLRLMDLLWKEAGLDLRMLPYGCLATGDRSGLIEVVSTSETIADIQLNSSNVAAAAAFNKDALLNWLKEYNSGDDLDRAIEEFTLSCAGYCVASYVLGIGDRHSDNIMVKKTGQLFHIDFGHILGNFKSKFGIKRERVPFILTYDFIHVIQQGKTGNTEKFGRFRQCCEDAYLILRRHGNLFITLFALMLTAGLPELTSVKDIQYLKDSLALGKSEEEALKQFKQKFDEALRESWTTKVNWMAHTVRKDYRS
T1 sequence (P27986 whole entry partner): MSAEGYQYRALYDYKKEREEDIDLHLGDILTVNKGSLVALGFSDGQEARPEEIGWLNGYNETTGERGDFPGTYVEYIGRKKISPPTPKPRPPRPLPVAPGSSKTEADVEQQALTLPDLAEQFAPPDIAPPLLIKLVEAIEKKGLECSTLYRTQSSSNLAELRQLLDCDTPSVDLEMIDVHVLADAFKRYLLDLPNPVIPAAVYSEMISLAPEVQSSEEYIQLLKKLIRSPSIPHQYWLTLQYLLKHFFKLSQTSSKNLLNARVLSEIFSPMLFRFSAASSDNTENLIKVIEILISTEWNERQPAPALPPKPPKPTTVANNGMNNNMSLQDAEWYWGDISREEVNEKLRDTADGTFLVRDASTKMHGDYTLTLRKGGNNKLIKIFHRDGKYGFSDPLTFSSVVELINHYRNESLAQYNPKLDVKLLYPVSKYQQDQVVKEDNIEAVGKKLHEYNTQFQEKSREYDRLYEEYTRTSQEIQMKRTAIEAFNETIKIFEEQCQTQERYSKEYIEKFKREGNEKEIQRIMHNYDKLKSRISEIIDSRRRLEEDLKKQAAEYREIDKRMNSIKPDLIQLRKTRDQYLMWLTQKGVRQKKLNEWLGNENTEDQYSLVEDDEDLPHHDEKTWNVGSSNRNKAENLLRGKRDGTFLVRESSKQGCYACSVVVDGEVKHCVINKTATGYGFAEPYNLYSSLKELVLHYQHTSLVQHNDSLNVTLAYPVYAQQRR

Take `CC(C)=CC(=O)CCC(=O)N1CCN(Cc2cc3nc(-c4cccc5[nH]ncc45)nc(N4CCOCC4)c3s2)CC1` [II-a-3, 1-(4-((2-(1H-indazol-4-yl)-4-morpholinothieno[3,2-d]pyrimidin-6-yl)methyl)piperazin-1-yl)-6-methylhept-5-ene-1,4-dione]: the IC50 in assay [1] is greater than 1000 nM. For the same compound, the EC50 was 10 to 100 nM in assay [2]; no more than 10 nM in assay [3] (setting [4]); no more than 10 nM in assay [3] (Table 19, assay not given, classes agree with Table 23, read-out: EC50 pAkt^Ser473).

In the case of `C/C=C/C(=O)CCC(=O)N1CCN(Cc2cc3nc(-c4cccc5[nH]ncc45)nc(N4CCOCC4)c3s2)CC1` [II-a-36, (E)-1-(4-((2-(1H-indazol-4-yl)-4-morpholinothieno[3,2-d]pyrimidin-6-yl)methyl)piperazin-1-yl)hept-5-ene-1,4-dione], the IC50 in assay [1] was greater than 1000 nM. Further, the results for the EC50 in assay [2] and in assay [3] (setting [4]) were 10 to 100 nM and 100 to 1000 nM, respectively.
